Data reported in ChEMBL document CHEMBL3352116, “Discovery heralds new approach to the treatment of cystic fibrosis” (J Med Chem, 2014).

Key:
[1] = target: Cystic fibrosis transmembrane conductance regulator (Homo sapiens, UniProt P13569); test: Corrector activity at CFTR mutant (unknown origin) by phenotypic screening assay
[2] = Half life in rat; assay type: ADME, organism-based; settings: in vivo
[3] = Oral bioavailability in rat; assay type: ADME, organism-based; settings: in vivo
[4] = Inhibition of CYP450 (unknown origin); assay type: ADME; settings: human
[5] = target: Cystic fibrosis transmembrane conductance regulator (Homo sapiens, UniProt P13569, F508DEL/G551D); test: […] activity at human bronchial epithelium CFTR F508del and G551D mutant assessed as increase in channel gating
Chain of Cystic fibrosis transmembrane conductance regulator (Homo sapiens, UniProt P13569, F508DEL/G551D) (P13569 as listed by the source): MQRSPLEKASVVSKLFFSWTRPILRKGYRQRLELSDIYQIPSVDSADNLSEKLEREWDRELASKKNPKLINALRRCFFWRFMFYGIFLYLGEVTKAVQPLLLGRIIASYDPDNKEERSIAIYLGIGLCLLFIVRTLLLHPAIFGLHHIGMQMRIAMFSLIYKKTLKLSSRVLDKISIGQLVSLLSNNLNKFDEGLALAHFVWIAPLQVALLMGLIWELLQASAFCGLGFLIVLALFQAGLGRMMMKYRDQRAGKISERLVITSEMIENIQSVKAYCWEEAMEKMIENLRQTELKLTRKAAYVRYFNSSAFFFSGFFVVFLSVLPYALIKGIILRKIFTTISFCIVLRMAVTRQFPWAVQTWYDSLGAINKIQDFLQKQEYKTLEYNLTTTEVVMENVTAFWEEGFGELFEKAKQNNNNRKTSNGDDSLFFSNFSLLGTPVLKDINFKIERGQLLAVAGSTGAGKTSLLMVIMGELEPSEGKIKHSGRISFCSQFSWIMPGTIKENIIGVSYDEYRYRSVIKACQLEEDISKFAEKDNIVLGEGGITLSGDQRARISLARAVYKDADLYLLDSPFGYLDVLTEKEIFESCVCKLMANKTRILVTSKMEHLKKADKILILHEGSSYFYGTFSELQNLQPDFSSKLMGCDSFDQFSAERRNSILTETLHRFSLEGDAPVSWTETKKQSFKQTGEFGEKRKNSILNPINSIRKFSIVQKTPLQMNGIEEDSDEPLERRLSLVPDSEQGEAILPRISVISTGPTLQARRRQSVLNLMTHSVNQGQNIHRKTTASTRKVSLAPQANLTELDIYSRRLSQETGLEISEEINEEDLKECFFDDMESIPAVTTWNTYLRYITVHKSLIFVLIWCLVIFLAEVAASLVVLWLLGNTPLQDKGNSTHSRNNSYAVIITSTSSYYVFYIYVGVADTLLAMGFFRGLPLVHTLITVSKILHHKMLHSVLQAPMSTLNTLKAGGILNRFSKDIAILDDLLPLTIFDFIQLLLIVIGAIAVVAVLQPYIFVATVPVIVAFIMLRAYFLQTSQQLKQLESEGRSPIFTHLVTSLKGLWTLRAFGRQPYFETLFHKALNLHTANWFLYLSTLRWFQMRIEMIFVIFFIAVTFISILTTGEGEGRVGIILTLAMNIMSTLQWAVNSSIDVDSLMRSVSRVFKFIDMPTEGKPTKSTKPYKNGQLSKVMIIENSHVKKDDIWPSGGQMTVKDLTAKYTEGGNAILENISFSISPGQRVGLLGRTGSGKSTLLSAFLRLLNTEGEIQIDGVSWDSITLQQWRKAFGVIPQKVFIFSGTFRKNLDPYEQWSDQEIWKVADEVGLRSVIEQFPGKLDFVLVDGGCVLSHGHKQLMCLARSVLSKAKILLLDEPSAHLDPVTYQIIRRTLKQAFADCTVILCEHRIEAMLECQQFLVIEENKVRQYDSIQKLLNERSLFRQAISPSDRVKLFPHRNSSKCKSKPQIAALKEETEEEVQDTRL

Chain of Cystic fibrosis transmembrane conductance regulator (Homo sapiens, UniProt P13569) (P13569 whole entry, looked up, change not shown): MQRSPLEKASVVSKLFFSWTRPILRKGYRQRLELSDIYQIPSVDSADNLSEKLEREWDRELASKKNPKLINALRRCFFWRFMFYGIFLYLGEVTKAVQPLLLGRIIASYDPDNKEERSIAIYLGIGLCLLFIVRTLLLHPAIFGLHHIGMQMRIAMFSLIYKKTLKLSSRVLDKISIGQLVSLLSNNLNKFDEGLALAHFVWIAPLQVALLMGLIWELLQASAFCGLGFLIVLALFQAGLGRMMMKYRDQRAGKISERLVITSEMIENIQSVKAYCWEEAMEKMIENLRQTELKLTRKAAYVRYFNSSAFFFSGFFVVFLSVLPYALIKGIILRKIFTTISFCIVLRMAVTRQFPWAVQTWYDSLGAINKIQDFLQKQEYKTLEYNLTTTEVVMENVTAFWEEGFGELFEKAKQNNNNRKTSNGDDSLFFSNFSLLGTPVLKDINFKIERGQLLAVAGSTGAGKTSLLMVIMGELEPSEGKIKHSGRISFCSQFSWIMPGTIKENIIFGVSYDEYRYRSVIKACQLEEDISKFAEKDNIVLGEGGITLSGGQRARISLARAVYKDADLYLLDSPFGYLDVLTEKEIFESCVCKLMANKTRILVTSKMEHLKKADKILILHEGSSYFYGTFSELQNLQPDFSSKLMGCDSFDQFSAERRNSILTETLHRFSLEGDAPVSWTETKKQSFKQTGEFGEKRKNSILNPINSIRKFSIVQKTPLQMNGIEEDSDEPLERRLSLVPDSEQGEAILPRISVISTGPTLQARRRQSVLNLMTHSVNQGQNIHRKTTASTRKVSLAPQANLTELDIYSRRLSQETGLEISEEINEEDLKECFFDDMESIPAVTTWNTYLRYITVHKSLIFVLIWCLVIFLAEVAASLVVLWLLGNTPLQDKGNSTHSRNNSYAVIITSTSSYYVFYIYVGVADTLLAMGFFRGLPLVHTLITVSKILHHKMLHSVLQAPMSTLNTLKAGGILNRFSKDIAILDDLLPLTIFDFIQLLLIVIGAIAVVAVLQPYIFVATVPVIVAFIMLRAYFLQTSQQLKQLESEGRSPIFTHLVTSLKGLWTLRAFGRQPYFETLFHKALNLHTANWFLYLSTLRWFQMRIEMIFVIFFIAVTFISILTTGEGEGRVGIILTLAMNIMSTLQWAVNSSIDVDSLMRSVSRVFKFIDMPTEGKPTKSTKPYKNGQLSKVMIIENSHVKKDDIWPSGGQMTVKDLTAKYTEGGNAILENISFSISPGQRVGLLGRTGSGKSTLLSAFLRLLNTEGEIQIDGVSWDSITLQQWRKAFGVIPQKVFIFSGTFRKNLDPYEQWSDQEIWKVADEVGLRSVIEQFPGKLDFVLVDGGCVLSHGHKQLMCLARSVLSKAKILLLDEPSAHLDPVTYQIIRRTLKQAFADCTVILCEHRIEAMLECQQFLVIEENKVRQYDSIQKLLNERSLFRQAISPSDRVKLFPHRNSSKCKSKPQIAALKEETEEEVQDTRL

EC50 [1]	half-life [2]	bioavailability [3]	inhibition (INH) [4]	EC50 [5]	SMILES
3 nM	9.5 h	55%	Not Active	236 nM	CC(C)(C)c1cc(C(C)(C)C)c(NC(=O)c2c[nH]c3ccccc3c2=O)cc1O [IVACAFTOR]
2100 nM	–	–	–	–	O=C(c1c[nH]c2ccccc2c1=O)N(Cc1ccccc1)Cc1ccccc1
100 nM	–	–	–	–	O=C(Nc1ccc2cc[nH]c2c1)c1c[nH]c2ccccc2c1=O
